Source: PMC12420824, “Discovery of a selective alpha-kinase 1 inhibitor for the rare genetic disease ROSAH syndrome” (Nature Communications, 2025)
Several values for one entry are separate records, joined by “and”; a condition that tells them apart may be missing. Equal values may be shown once.

Columns and labels:
[1] = target: SIK3 (Homo sapiens, UniProt Q9Y2K2); assay: HotSpot kinase assay; conditions: read-out: % Enzyme Activity (relative to DMSO control), 10 uM
Excerpt: (§1) Additionally, a 10-dose dilution series of staurosporine and other enzyme-appropriate compounds were included as positive control inhibitors.

[2] = target: SRMS (Homo sapiens, UniProt Q9H3Y6); assay: HotSpot kinase assay; conditions: read-out: % Enzyme Activity (relative to DMSO control), 10 uM
[3] = target: MARK2/PAR-1Ba (Homo sapiens, UniProt Q7KZI7); assay: HotSpot kinase assay; conditions: read-out: % Enzyme Activity (relative to DMSO control), 10 uM
[4] = target: CK1G3 (Homo sapiens, UniProt Q9Y6M4); assay: HotSpot kinase assay; conditions: read-out: % Enzyme Activity (relative to DMSO control), 10 uM
CK1G3, sequence (Q9Y6M4 whole entry): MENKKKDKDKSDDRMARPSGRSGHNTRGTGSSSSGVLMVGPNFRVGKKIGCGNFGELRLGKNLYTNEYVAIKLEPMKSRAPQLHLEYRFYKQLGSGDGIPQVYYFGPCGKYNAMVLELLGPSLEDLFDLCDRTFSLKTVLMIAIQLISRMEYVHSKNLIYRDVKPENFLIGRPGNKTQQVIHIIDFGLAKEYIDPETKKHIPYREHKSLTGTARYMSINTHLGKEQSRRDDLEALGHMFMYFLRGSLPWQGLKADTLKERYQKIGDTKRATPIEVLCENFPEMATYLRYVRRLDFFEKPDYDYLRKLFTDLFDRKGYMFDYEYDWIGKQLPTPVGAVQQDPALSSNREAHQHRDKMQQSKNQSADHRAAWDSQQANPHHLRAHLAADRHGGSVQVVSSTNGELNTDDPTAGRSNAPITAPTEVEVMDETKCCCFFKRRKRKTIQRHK
Excerpt: as §1

[5] = target: SYK (Homo sapiens, UniProt P43405); assay: HotSpot kinase assay; conditions: read-out: % Enzyme Activity (relative to DMSO control), 10 uM
Excerpt: as §1

[6] = target: CK2a2 (Homo sapiens, UniProt P19784); assay: HotSpot kinase assay; conditions: read-out: % Enzyme Activity (relative to DMSO control), 10 uM
Excerpt: as §1

[7] = target: ERK2/MAPK1 (Homo sapiens, UniProt P28482); assay: HotSpot kinase assay; conditions: read-out: % Enzyme Activity (relative to DMSO control), 10 uM
[8] = target: DCAMKL2 (Homo sapiens, UniProt Q8N568); assay: HotSpot kinase assay; conditions: read-out: % Enzyme Activity (relative to DMSO control), 10 uM
[9] = target: LCK2/ICK (Homo sapiens, UniProt Q9UPZ9); assay: HotSpot kinase assay; conditions: read-out: % Enzyme Activity (relative to DMSO control), 10 uM
Excerpt: as §1

[10] = target: TYK2 (Homo sapiens, UniProt P29597); assay: HotSpot kinase assay; conditions: read-out: % Enzyme Activity (relative to DMSO control), 10 uM
TYK2, sequence (P29597 whole entry): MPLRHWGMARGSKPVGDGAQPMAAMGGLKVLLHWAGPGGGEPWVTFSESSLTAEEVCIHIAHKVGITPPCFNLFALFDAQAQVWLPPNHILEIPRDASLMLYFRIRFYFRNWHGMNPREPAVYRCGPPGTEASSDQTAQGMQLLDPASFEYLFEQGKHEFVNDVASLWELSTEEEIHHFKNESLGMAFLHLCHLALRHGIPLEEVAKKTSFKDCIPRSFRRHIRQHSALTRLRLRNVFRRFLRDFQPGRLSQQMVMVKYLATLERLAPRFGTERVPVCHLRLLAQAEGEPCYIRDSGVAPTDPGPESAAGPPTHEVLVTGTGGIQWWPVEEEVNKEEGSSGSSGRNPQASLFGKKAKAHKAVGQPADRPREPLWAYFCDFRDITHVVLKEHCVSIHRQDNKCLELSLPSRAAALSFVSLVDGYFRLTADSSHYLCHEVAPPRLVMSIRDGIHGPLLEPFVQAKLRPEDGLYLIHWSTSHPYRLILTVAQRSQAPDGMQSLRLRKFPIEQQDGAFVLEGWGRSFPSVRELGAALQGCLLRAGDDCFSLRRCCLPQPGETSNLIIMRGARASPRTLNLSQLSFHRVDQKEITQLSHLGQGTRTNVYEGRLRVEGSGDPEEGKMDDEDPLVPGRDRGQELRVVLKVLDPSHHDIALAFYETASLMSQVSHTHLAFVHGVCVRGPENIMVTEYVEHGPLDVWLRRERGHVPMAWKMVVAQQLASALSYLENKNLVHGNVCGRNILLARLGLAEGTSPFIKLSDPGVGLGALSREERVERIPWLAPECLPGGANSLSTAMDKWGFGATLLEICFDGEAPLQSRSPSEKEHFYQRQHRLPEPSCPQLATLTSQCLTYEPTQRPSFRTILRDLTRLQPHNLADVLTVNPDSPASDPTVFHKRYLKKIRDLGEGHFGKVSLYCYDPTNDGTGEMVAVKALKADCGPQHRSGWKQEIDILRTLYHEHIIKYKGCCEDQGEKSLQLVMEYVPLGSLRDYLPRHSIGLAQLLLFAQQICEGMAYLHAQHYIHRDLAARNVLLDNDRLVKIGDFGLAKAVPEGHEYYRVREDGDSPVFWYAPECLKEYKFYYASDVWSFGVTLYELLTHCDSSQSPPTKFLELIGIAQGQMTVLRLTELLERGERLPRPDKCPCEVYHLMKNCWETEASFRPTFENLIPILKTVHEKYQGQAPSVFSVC
Excerpt: as §1

[11] = target: MAK (Homo sapiens, UniProt P20794); assay: HotSpot kinase assay; conditions: read-out: % Enzyme Activity (relative to DMSO control), 10 uM
Excerpt: as §1

[12] = tested on: hALPK1-KI mice; assay: Retinal astrocyte activation (GFAP); conditions: individual animals
[13] = target: PLK2 (Homo sapiens, UniProt Q9NYY3); assay: HotSpot kinase assay; conditions: read-out: % Enzyme Activity (relative to DMSO control), 10 uM
[14] = target: PKCa (Homo sapiens, UniProt P17252); assay: HotSpot kinase assay; conditions: read-out: % Enzyme Activity (relative to DMSO control), 10 uM
Excerpt: as §1

[15] = target: CAMK1b (Homo sapiens, UniProt Q6P2M8); assay: HotSpot kinase assay; conditions: read-out: % Enzyme Activity (relative to DMSO control), 10 uM
[16] = target: PKCeta (Homo sapiens, UniProt P24723); assay: HotSpot kinase assay; conditions: read-out: % Enzyme Activity (relative to DMSO control), 10 uM
Excerpt: as §1

[17] = target: RSK1 (Homo sapiens, UniProt Q15418); assay: HotSpot kinase assay; conditions: read-out: % Enzyme Activity (relative to DMSO control), 10 uM
[18] = target: EIF2AK1 (Homo sapiens, UniProt Q9BQI3); assay: HotSpot kinase assay; conditions: read-out: % Enzyme Activity (relative to DMSO control), 10 uM
EIF2AK1, sequence (Q9BQI3 whole entry): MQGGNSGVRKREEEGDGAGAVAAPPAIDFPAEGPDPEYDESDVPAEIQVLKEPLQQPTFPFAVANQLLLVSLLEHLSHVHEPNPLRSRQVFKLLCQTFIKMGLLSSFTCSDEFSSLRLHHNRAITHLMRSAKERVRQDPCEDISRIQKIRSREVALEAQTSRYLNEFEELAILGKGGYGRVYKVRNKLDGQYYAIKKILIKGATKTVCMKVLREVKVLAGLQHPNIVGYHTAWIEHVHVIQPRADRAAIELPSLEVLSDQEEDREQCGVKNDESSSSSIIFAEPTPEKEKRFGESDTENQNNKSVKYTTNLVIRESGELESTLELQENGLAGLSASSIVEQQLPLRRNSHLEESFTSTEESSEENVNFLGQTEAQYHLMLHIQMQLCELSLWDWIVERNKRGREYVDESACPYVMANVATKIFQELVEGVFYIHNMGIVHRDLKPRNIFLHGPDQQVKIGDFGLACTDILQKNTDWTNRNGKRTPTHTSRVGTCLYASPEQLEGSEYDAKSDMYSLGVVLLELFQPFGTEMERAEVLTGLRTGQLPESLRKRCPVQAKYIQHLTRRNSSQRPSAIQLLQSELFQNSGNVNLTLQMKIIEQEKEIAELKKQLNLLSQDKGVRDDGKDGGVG
Excerpt: as §1

[19] = target: STK33 (Homo sapiens, UniProt Q9BYT3); assay: HotSpot kinase assay; conditions: read-out: % Enzyme Activity (relative to DMSO control), 10 uM
[20] = target: P38b/MAPK11 (Homo sapiens, UniProt Q15759); assay: HotSpot kinase assay; conditions: read-out: % Enzyme Activity (relative to DMSO control), 10 uM
[21] = target: MLK4 (Homo sapiens, UniProt Q5TCX8); assay: HotSpot kinase assay; conditions: read-out: % Enzyme Activity (relative to DMSO control), 10 uM
[22] = target: AMPK(A2/B2/G3) (Homo sapiens, UniProt P54646); assay: HotSpot kinase assay; conditions: read-out: % Enzyme Activity (relative to DMSO control), 10 uM
Excerpt: as §1

[23] = target: AURORA C (Homo sapiens, UniProt Q9UQB9); assay: HotSpot kinase assay; conditions: read-out: % Enzyme Activity (relative to DMSO control), 10 uM
[24] = target: AMPK(A2/B2/G1) (Homo sapiens, UniProt P54646); assay: HotSpot kinase assay; conditions: read-out: % Enzyme Activity (relative to DMSO control), 10 uM
[25] = target: RIPK4 (Homo sapiens, UniProt P57078); assay: HotSpot kinase assay; conditions: read-out: % Enzyme Activity (relative to DMSO control), 10 uM
RIPK4, sequence (P57078 whole entry): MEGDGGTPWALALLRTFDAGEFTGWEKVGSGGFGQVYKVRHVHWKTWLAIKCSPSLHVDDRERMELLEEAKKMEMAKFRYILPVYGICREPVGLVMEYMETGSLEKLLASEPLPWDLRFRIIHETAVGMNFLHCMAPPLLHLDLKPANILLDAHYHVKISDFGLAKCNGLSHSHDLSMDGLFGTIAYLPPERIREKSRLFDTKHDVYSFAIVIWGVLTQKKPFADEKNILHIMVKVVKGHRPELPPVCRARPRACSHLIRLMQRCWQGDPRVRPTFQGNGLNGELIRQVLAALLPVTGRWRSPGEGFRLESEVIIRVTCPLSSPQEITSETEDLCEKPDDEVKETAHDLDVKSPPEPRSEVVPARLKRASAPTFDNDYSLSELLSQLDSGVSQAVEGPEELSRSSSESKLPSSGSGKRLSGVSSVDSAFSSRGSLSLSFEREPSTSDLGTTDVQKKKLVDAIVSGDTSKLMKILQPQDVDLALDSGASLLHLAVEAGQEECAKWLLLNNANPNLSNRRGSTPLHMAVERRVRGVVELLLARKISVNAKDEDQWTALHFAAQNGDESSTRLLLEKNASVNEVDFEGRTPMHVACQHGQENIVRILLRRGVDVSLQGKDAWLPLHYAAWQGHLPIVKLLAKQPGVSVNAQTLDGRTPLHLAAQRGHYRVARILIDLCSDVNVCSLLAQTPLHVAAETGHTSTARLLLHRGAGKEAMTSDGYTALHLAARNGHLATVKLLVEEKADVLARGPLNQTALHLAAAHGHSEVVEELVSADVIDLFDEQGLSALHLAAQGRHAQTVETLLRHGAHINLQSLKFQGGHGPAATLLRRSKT
Excerpt: as §1

[26] = target: GCK/MAP4K2 (Homo sapiens, UniProt Q12851); assay: HotSpot kinase assay; conditions: read-out: % Enzyme Activity (relative to DMSO control), 10 uM
[27] = target: DYRK2 (Homo sapiens, UniProt Q92630); assay: HotSpot kinase assay; conditions: read-out: % Enzyme Activity (relative to DMSO control), 10 uM
Excerpt: as §1

[28] = target: SNRK (Homo sapiens, UniProt Q9NRH2); assay: HotSpot kinase assay; conditions: read-out: % Enzyme Activity (relative to DMSO control), 10 uM
SNRK, sequence (Q9NRH2 whole entry): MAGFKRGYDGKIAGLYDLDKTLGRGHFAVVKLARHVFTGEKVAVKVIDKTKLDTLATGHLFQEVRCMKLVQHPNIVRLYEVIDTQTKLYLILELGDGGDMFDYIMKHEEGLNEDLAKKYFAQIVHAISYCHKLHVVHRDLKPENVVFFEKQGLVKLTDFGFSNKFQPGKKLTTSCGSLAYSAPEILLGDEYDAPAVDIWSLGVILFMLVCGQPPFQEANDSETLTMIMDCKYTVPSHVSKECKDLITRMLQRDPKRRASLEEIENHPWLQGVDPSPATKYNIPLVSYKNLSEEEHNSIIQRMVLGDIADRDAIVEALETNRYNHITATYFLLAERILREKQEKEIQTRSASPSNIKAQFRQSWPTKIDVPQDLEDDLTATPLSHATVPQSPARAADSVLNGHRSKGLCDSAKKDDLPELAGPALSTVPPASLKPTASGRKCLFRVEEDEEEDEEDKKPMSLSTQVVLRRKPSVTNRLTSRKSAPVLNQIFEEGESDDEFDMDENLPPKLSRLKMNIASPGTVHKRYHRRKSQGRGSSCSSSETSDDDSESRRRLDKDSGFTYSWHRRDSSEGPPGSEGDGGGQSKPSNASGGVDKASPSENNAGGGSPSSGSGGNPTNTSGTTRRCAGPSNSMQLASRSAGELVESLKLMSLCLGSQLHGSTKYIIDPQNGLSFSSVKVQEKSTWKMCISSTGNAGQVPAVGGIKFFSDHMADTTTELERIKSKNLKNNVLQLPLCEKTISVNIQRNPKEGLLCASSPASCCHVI
Excerpt: as §1

[29] = target: ROCK1 (Homo sapiens, UniProt Q13464); assay: HotSpot kinase assay; conditions: read-out: % Enzyme Activity (relative to DMSO control), 10 uM
Excerpt: as §1

[30] = target: NIM1 (Homo sapiens, UniProt Q8IY84); assay: HotSpot kinase assay; conditions: read-out: % Enzyme Activity (relative to DMSO control), 10 uM
Excerpt: as §1

[31] = target: CDK4/cyclin D3 (Homo sapiens, UniProt P11802); assay: HotSpot kinase assay; conditions: read-out: % Enzyme Activity (relative to DMSO control), 10 uM
Excerpt: as §1

[32] = target: PKCzeta (Homo sapiens, UniProt Q05513); assay: HotSpot kinase assay; conditions: read-out: % Enzyme Activity (relative to DMSO control), 10 uM
Excerpt: as §1

[33] = target: MRCKa/CDC42BPA (Homo sapiens, UniProt Q5VT25); assay: HotSpot kinase assay; conditions: read-out: % Enzyme Activity (relative to DMSO control), 10 uM
Excerpt: as §1

[34] = target: AKT1 (Homo sapiens, UniProt P31749); assay: HotSpot kinase assay; conditions: read-out: % Enzyme Activity (relative to DMSO control), 10 uM
[35] = target: MEK5 (Homo sapiens, UniProt Q13163); assay: HotSpot kinase assay; conditions: read-out: % Enzyme Activity (relative to DMSO control), 10 uM
Excerpt: as §1

[36] = target: SRPK2 (Homo sapiens, UniProt P78362); assay: HotSpot kinase assay; conditions: read-out: % Enzyme Activity (relative to DMSO control), 10 uM
Excerpt: as §1

[37] = target: MEKK6 (Homo sapiens, UniProt O95382); assay: HotSpot kinase assay; conditions: read-out: % Enzyme Activity (relative to DMSO control), 10 uM
Excerpt: as §1

[38] = target: TXK (Homo sapiens, UniProt P42681); assay: HotSpot kinase assay; conditions: read-out: % Enzyme Activity (relative to DMSO control), 10 uM
TXK, sequence (P42681 whole entry): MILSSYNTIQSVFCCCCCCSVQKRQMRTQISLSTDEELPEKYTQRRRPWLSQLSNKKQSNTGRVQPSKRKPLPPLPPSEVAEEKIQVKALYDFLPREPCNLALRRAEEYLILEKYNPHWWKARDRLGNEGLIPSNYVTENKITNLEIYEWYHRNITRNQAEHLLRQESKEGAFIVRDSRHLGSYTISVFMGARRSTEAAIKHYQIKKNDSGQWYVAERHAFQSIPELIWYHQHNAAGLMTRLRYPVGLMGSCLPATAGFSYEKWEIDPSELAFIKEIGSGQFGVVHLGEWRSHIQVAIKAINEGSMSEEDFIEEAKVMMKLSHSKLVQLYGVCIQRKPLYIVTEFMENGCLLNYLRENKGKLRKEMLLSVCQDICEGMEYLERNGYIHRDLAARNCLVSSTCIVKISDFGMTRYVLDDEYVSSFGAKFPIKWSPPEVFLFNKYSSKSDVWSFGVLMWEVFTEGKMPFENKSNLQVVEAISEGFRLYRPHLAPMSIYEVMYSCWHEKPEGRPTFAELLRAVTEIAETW
Excerpt: as §1

[39] = target: LYN (Homo sapiens, UniProt P07948); assay: HotSpot kinase assay; conditions: read-out: % Enzyme Activity (relative to DMSO control), 10 uM
LYN, sequence (P07948 whole entry): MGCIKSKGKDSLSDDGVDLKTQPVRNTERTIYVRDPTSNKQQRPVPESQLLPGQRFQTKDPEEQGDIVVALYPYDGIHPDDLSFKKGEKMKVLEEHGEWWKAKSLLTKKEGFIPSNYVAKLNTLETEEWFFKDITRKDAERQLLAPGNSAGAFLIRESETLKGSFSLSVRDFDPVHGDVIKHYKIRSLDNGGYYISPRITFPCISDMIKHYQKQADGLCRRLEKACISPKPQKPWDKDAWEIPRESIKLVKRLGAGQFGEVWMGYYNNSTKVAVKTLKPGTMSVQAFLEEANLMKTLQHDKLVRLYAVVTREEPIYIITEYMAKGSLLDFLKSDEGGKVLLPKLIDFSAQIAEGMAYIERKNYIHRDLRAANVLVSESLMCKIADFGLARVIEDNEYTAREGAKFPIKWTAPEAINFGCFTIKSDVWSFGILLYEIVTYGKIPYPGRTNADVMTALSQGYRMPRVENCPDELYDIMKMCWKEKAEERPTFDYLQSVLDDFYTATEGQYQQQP
Excerpt: as §1

## C#C[C@@](C)(c1ccc(Cl)cc1)c1csc(NC(=O)c2c(F)cc(N3CCNCC3)cc2F)n1 (stereo in doubt) [DF-003]
[1]
  remaining activity at 10 µM: 79.6%
[2]
  remaining activity at 10 µM: 97.9%
[3]
  remaining activity at 10 µM: 91.2%
[4]
  remaining activity at 10 µM: 92.5%
[5]
  remaining activity at 10 µM: 78.8%
[6]
  remaining activity at 10 µM: 128%
[7]
  remaining activity at 10 µM: 91.9%
[8]
  remaining activity at 10 µM: 68.8%
[9]
  remaining activity at 10 µM: 86.9%
[10]
  remaining activity at 10 µM: 82.7%
[11]
  remaining activity at 10 µM: 100%
[12]; DF-003 3mpk
  Length of retina nerve fiber layer with positive GFAP staining (%): 5.89%
[12]; DF-003 3mpk, 3 mg/kg
  Length of retina nerve fiber layer with positive GFAP staining (%): *36.72% and 4.72% and 11.49% and 5.82% and 8.23% and 8.01%
[12]; DF-003 5mpk, 5 mg/kg
  Length of retina nerve fiber layer with positive GFAP staining (%): 0.34% and 3.64% and 11.44% and 5.19% and 4.22% and 29.43% and 8.01%
[13]
  remaining activity at 10 µM: 109%
[14]
  remaining activity at 10 µM: 134%
[15]
  remaining activity at 10 µM: 36.7%
[16]
  remaining activity at 10 µM: 75.3%
[17]
  remaining activity at 10 µM: 69.2%
[18]
  remaining activity at 10 µM: 91.9%
[19]
  remaining activity at 10 µM: 93.9%
[20]
  remaining activity at 10 µM: 95.4%
[21]
  remaining activity at 10 µM: 85.8%
[22]
  remaining activity at 10 µM: 85%
[23]
  remaining activity at 10 µM: 91.7%
[24]
  remaining activity at 10 µM: 90.2%
[25]
  remaining activity at 10 µM: 48.3%
[26]
  remaining activity at 10 µM: 84%
[27]
  remaining activity at 10 µM: 83.6%
[28]
  remaining activity at 10 µM: 80.5%
[29]
  remaining activity at 10 µM: 94.8%
[30]
  remaining activity at 10 µM: 52.2%
[31]
  remaining activity at 10 µM: 91.1%
[32]
  remaining activity at 10 µM: 89.4%
[33]
  remaining activity at 10 µM: 85.9%
[34]
  remaining activity at 10 µM: 81.4%
[35]
  remaining activity at 10 µM: 109%
[36]
  remaining activity at 10 µM: 126%
[37]
  remaining activity at 10 µM: 73.4%
[38]
  remaining activity at 10 µM: 73.7%
[39]
  remaining activity at 10 µM: 137%
